Measurements: patent publication US20130004580A1, “DIVALENT CATION/TALC CONTAINING COMPOSITIONS AND METHODS FOR TREATING AND/OR PREVENTING ENZYMATIC IRRITATION” (priority 2011, published 2013)

What was measured:
Type in all cases: biochemical
[1] = system: trypsin; assay: Trypsin inhibition, EnzChek protease assay, mixtures of talc with divalent cation salts
Method: The objective of the following experiment was to determine whether and to what extent adding a divalent cation to talc inhibited trypsin activity in an in vitro assay. The inhibition of trypsin-induced cleavage of a fluorescent casein peptide was measured using the EnzChek™ protease assay kit, following manufacturer's instructions (EnzChek™ Protease Assay Kits Product Information, Revised; Molecular Probes, Eugene Oreg.). […] Trypsin working solution (Sigma, St. Louis, Mo., unit/mL) was prepared in digestion buffer provided in the assay kit. Stock solution of BODIPY FL casein (trypsin substrate, mg/mL) was prepared by adding 0.2 mL to the substrate vials (provided in kit), and the final substrate working solution (10 microgram/mL) was prepared by dilution in digestion buffer (pH 7.8). Following incubation of the trypsin, with or without the test materials, with the BODIPY fluorescent casein substrate, at room temperature for one hour, fluorescence was measured (excitation 485 nm/emission 530 nm) using a SpectraMax microtiter plate reader (Molecular Devices Corporation, Sunnyvale, Calif.) and Softmax Pro software (Molecular Devices Corporation). Each experiment was performed in three replicates.

[2] = system: trypsin; assay: Trypsin inhibition, EnzChek protease assay (BODIPY FL casein cleavage), cation salts; conditions: Table 1
Method: The inhibition of trypsin-induced cleavage of a fluorescent casein peptide was measured using the EnzChek™ protease assay kit, following manufacturer's instructions (EnzChek™ Protease Assay Kits Product Information, Revised; Molecular Probes, Eugene Oreg.). Briefly, test materials at different concentrations were prepared in 1× phosphate buffered saline (PBS, pH 7.4). Trypsin working solution (Sigma, St. Louis, Mo., unit/mL) was prepared in digestion buffer provided in the assay kit. Stock solution of BODIPY FL casein (trypsin substrate, mg/mL) was prepared by adding 0.2 mL to the substrate vials (provided in kit), and the final substrate working solution (10 microgram/mL) was prepared by dilution in digestion buffer (pH 7.8). […] Each experiment was performed in three replicates.

[3] = system: trypsin; assay: Trypsin inhibition, EnzChek protease assay, zinc oxide/acid mixtures and formulations; conditions: text b134 on Table 5
Method: The objective of the following experiment was to determine whether and to what extent adding an acid to a formulation containing zinc oxide had on inhibition of trypsin activity in an in vitro assay. The inhibition of trypsin-induced cleavage of a fluorescent casein peptide was measured using the EnzChek™ protease assay kit, following manufacturer's instructions (EnzChek™ Protease Assay Kits Product Information, Revised; Molecular Probes, Eugene Oreg.). Briefly, mixtures of zinc oxide and acid at different concentrations were prepared in 1×PBS (pH 7.4) and their pH was recorded as listed in the Tables 5-8. Trypsin working solution (Sigma, St. Louis, Mo., unit/mL) was prepared in digestion buffer provided in the assay kit. Stock solution of BODIPY FL casein (trypsin substrate, mg/mL) was prepared by adding 0.2 mL to the substrate vials (provided in kit), and the final substrate working solution (10 microgram/mL) was prepared by dilution in digestion buffer (pH 7.8). Following incubation of the trypsin, with or without the test materials (50 μl), with the BODIPY fluorescent casein substrate, at room temperature for one hour, fluorescence was measured (excitation 485 nm/emission 530 nm) using a SpectraMax microtiter plate reader (Molecular Devices Corporation, Sunnyvale, Calif.) and Softmax Pro software (Molecular Devices Corporation). Each experiment was performed in three replicates. […]

Compound: CC(=O)[O-].CC(=O)[O-].O.[Ca+2] [Calcium acetate monohydrate]
- Salt alone, trypsin inhibition activities (%) ([1]; Table 3, 0.1% (g/mL)): 15.31%

Compound: [Cl-].[Cl-].[Zn+2] [Zinc chloride]
- Salt alone, trypsin inhibition activities (%) ([1]; Table 3, 0.1% (g/mL)): 81.07%

Compound: [Ca+2].[Cl-].[Cl-] [Calcium chloride]
- Salt alone, trypsin inhibition activities (%) ([1]; Table 3, 0.1% (g/mL)): 17.95%

Compound: [Cl-].[Cl-].[Mg+2] [Magnesium chloride]
- Salt alone, trypsin inhibition activities (%) ([1]; Table 3, 0.1% (g/mL)): 4.75%
- Salt alone, trypsin inhibition activities (%) ([1]; Table 4, 0.1% MgCl2 (g/mL)): 9.02%
- With 1% Talc, trypsin inhibition activities (%) ([1]; Table 4, 0.1% MgCl2 with 1% talc (g/mL)): 25.43%
- Salt alone, trypsin inhibition activities (%) ([1]; Table 4, 0.5% MgCl2 (g/mL)): 19.51%
- With 1% Talc, trypsin inhibition activities (%) ([1]; Table 4, 0.5% MgCl2 with 1% talc (g/mL)): 32.84%
- Salt alone, trypsin inhibition activities (%) ([1]; Table 4, 1% MgCl2 (g/mL)): 22.13%
- With 1% Talc, trypsin inhibition activities (%) ([1]; Table 4, 1% MgCl2 with 1% talc (g/mL)): 40.42%
- trypsin inhibitory activity, in words ([1]; text b102 on Table 4): moderate to low levels of trypsin inhibitory activity

Compound: O.O.O.O.[Cl][Fe][Cl] [Iron (II) chloride tetrahydrate]
- Salt alone, trypsin inhibition activities (%) ([1]; Table 3, 0.1% (g/mL)): 65.07%

Compound: CC(=O)[O-].CC(=O)[O-].O.O.O.O.[Mg+2] [Magnesium acetate tetrahydrate]
- Salt alone, trypsin inhibition activities (%) ([1]; Table 3, 0.1% (g/mL)): 0.83%

Compound: copper (II) chloride [(II) chloride dihydrate]
- % trypsin inhibitory activity ([2]; concentration 0.01% (g/mL)): 64.98%
- % trypsin inhibitory activity ([2]; concentration 0.10% (g/mL)): 99.34%
- % trypsin inhibitory activity ([2]; concentration 1% (g/mL)): 108.34%

Compound: CC(=O)[O-].CC(=O)[O-].[Zn+2] [Zinc acetate dihydrate]
- Salt alone, trypsin inhibition activities (%) ([1]; Table 3, 0.1% (g/mL)): 62.84%

Compound: [O]=[Zn] [ZnO, zinc oxide]
- trypsin inhibitory activity, in words [3]: minimal protease activity
